Entries after “also recorded” stand apart in the source; their conditions may differ. Read-outs that look alike come from different tables or passages of the source.
What was measured:
[1] = system: tau; test: Tau immunohistochemistry with H7 anti-tau antibody in 3xTg-AD mice; assay type: in vivo, mouse
Text: The 3xTg-AD mouse model incorporates both pathological hallmarks of Alzheimer's disease: Aβ amyloid plaques and neurofibrillary tangles. Neurofibrillary tangles consist of accumulates of abnormally phosphorylated tau protein. In the 3xTg-AD mice pathological somato-dendritic accumulation of tau can be seen in immunohistochemistry as part of the disease model phenotype.
ST101 effects on tau distribution and accumulation were explored in immunohistochemistry with H7 anti-tau antibody.

[2] = system: BACE1; test: Western blot of BACE in brain extracts of 3xTg-AD mice; assay type: in vivo, mouse; conditions: 12-month-old 3xTg-AD mice, 5 mg/kg/day, 2 months
Method: (§1) APP C-terminal fragments C99 and C83 are created by beta-secretase and alpha-secretase cleavage respectively. The reduction of both C99 and C83 induced by ST101 could therefore be due to reduction or inhibition of secretases. This hypothesis was tested using Western blots of brain extracts from 3xTg-AD mice from the initial experiment in 12-month-old animals treated with ST101 for 2 months. The only beta-secretase is BACE1 and the constitutive alpha-secretase is ADAM10.
(§2) Western blots were probed with antibodies against BACE1 and ADAM10. FIG. 11A is a series of Western blots depicting levels of proADAM10, ADAM10, proBACE, BACE, Presenilin1 and APP-CFTs in brain extracts from ST101 treated 3xTG-AD mice (S) versus control mice (C). C: control brain extract. S: ST101-treated brain extract. Animals were approximately 12 months old at sacrifice after 2 months of treatment with ST101 at 5 mg/kg/day.
(§3) FIG. 11B depicts quantification of the Western blot bands from FIG. 11A by densitometry.

[3] = system: Presenilin 1; test: Western blot of Presenilin 1 in brain extracts of 3xTg-AD mice; assay type: in vivo, mouse; conditions: 12-month-old 3xTg-AD mice, 5 mg/kg/day, 2 months
Method: as §2, §3

[4] = system: Neuro2a cells; test: Aβ production by Neuro2a cultured cells, ELISA of culture medium; assay type: cell-based, murine; conditions: 24 hours of treatment, vs control
Method: Neuro2a is a murine neuroblastoma cell line that is known to produce amyloid peptides Aβ1-40 and Aβ1-42 in amounts measurable by ELISA assays. These forms of Aβ have been correlated with the pathology in AD brain and Aβ1-42 in particular is postulated to have the ability to block α7 nicotinic receptors and to produce direct neurotoxic effects. Neuro2a cells were treated for 24 hours with ST101 added to the tissue culture medium. Tissue culture medium was collected and analyzed by ELISA for the presence of Aβ.
FIGS. 1A and 1B are bar graphs that depict the effect of the compound ST101 on Aβ production by Neuro2a cells. FIG. 1A is a bar graph that depicts the Aβ concentration in the cell culture medium as a function of ST101 concentration compared to control. FIG. 1B a bar graph that depicts the ratio of Aβ1-42 to Aβ1-40 as a function of ST101 concentration compared to control.

[5] = system: ADAM17 (TACE); test: Western blot of TACE in brain extracts of 3xTg-AD mice; assay type: in vivo, mouse; conditions: 14.5-month-old 3xTg-AD mice, 2 months of treatment, 5 mg/kg/day in drinking water
Method: In addition to ADAM10, ADAM17 (TACE, which is Tumor Necrosis Factor converting enzyme) is known to act as an alpha-secretase of APP. Thus, it was tested in a Western blot whether ST101 reduces levels of ADAM17 (TACE).
(§4) The Western blot was obtained using a TACE specific antibody in brain extracts from ST101 treated 3xTG-AD mice (S) versus control mice (C). Animals were approximately 14.5 months old at sacrifice after 2 months of treatment with ST101 at 5 mg/kg/day in drinking water.

[6] = system: SAMP8 mouse; conditions: cited from earlier work
[7] = cited from earlier work
[8] = system: Aβ1-40; test: Aβ in brain tissue from cynomolgus monkeys; assay type: in vivo; conditions: juvenile cynomolgus monkeys, 10 mg/kg/day by naso-gastric tube, 6 months
Method: (§5) Brain samples from cynomolgus monkeys were obtained at the conclusion of a six-month chronic toxicity study. The cynomolgus monkeys used in this study were juveniles of less than 4 years of age. ST101 was administered daily for 6 months by naso-gastric tube at 10 mg/kg/day (n=8 per group). Data was generated from 8 treated and 8 control animals. Levels of Aβ1-40 are shown in FIG. 9, which is a bar graph that depicts the effect of ST 101 on Aβ in brain tissue from cynomolgus monkeys. FIG. 9 depicts the amount of levels of Aβ1-40 in monkeys treated with ST 101, relative to control monkeys.

[9] = system: sAPP-beta; test: Western blot of sAPP-beta in brain extracts of 3xTg-AD mice; assay type: in vivo, mouse; conditions: 14.5-month-old 3xTg-AD mice, 2 months of treatment, 5 mg/kg/day in drinking water
Method: as §4, with “FIG. 10B describes a reduction of fragment C99. C99 is created by BACE cleavage which leads to release of soluble APP, specifically sAPP-beta. […] The” for “The”, “an sAPP-beta” for “a TACE”

[10] = cited from earlier work; remark: listed apart in the source
[11] = in vivo
Text: (§6) On the surface, reduction of alpha-secretase cleavage could be considered an undesirable effect as alpha-secretase cleaves multiple other substrates. Thus, one could hypothesize that reduction of alpha-secretase might cause toxicity. However, ST101 has been proven safe in rodent and monkey toxicity studies of up to 6 months at doses up to approximately 100-fold higher than the ones used in the 3xTg-AD mice. […] This may be due to an incomplete effect of ST101 on alpha-secretases or due to activity of other alpha-secretases compensating for a major effect of ST101 on ADAM10.

[12] = system: APP; test: Western blot of APP and APP C-terminal fragments in brain extracts of 3xTg-AD mice; assay type: in vivo, mouse; conditions: 5 mg/kg/day
Method: To attempt to determine at what part in the Aβ processing/release pathway ST101 may be active, a series of Western blot analyses of brain extracts from the same mice were conducted. These Westerns blots examined intact APP as well as products of its post-translational processing and subsequent degradation.
FIG. 4 is a Western blot that depicts APP C-terminal fragments detected by antibody CT20 in the brains of ST101-treated (S) 3xTg-AD mice, relative to untreated (C) 3xTg mice-AD.
FIG. 5 is a Western blot that depicts APP and degradation fragments detected by antibody CT20 in the brains of ST101-treated (S) 3xTg-AD mice, relative to untreated (C) 3xTg-AD mice. “CT20” stands for full length APP species, and “Actin” stands for anti-beta-actin antibody as a protein loading control.
FIGS. 10A and 10B are Western blots that depict APP carboxy-terminal fragments detected by antibody CT20 in the brains of ST101-treated (T in FIG. 10A, S in FIG. 10B) 3xTg-AD mice, relative to untreated (C) 3xTg-AD mice. FIG. 10B is from a separate experiment that used the same brain extract used in the experiment for FIG. 10A. Animals were approximately 14.5 months old at sacrifice after 2.5 months of treatment with ST101 at 5 mg/kg/day in drinking water. * denotes a control animal with low levels of CTFs.
FIGS. 10C and 10D are Western blots that depict APP carboxy-terminal fragments detected by an APP C-terminal antibody (Eptitomics #: 15654-1) in the brains of ST101-treated (S) 3xTg-AD mice, relative to untreated (C) 3xTg-AD mice. FIG. 10D is a lighter exposure of the Western blot in FIG. 10C. Animals were approximately 14.5 months old at sacrifice after 2.5 months of treatment with ST101 at 5 mg/kg/day in drinking water.

[13] = system: ADAM10; test: Western blot of ADAM10 in brain extracts of 3xTg-AD mice; assay type: in vivo, mouse; conditions: 12-month-old 3xTg-AD mice, 5 mg/kg/day, 2 months
Method: as §1, §2, §3

[14] = system: tau; test: Western blot of tau and phosphorylated tau in brain extracts of 3xTg-AD mice; assay type: in vivo, mouse; conditions: overexposed blot, 12-month-old 3xTg-AD mice, 5 mg/kg/day, 2 months
Text: The status of tau phosphorylation, accumulation and degradation can be assessed in Western blots. Two anti-tau antibodies, directed against non-phosphorylated and phosphorylated tau, were used to probe brain extracts from the initial experiment. FIG. 12 is a series of Western blots depicting levels of full-length tau, tau accumulates, tau degradation products and phosphorylated tau levels in brain extracts from ST101 treated 3xTG-AD mice (S) versus control mice (C). Beta actin levels (Ac) were used as a loading control. P-tau, two panels per antibody: top—normal exposure; bottom—overexposure to visualize minor protein bands. Ac: beta actin antibody as protein loading control. Animals were approximately 12 months old at sacrifice after 2 months of treatment with ST101 at 5 mg/kg/day.

[15] = Monkey toxicity studies; assay type: in vivo; conditions: up to 6 months, doses up to approximately 100-fold higher than in 3xTg-AD mice
Method: as §5, §6

[16] = system: 3xTg-AD mice; test: Morris water maze in 3xTg-AD mice; assay type: in vivo, mouse; conditions: 2 months
Method: 3xTg-AD mice of approximately one year of age were treated for 2 months with ST101. An average dose of 5 mg/kg/day was administered in drinking water (calculated dose, based on mean water consumption). Behavioral effects were tested by assessing performance on the Morris Water Maze. Biochemical effects were examined by measuring brain content of Aβ and APP by ELISA and Western Blot.
Behavioral Effects: Performance of 3xTg-AD Mice in the Morris Water Maze (MWM), adapted from Roozendaal et al., Proc. Natl. Acad. Sci. U.S.A. 100: 1328-1333 (2003).
The MWM tests both spatial memory (i.e. hippocampus dependent) and cued learning (i.e. non-hippocampal) in rodents. The maze is a circular tank filled with opaque water. Mice are placed in the water and must swim to find and escape onto a platform submerged 1.5 cm beneath the surface of the water. The time (in seconds) required to find the platform is recorded. Animals rely on visual cues in the room containing the tank in order to find the platform on successive challenges. Training was conducted daily for seven consecutive days.
Retention of training was assessed twice, 24 and 72 hours after the final training trial. Animals were subjected to a 60-second free swim in the tank with the platform removed. Parameters measured included (1) latency: time required to reach the former platform location and (2) crosses: the number of times the animal swam across the former platform location.

[17] = 14.5-month-old 3xTg-AD mice, 2.5 months
[18] = antibody CT20, 12-month-old 3xTg-AD mice, 2 months
[19] = 24 and 72 hours after final training, 5 mg/kg/day

With O=C1N=C2C=CC=CN2C12Cc1ccccc1C2 [ST101, spiro(imidazo(1,2-a)pyridin-2(3H)-one-3,2′-indan)] as the molecule, how does the “neuronal loss, Hematoxylin/Eosin stained control sections” value [1] read?
Its value is “no neuronal loss”.

What about the “pathological somato-dendritic tau staining” value ([1]; hippocampus, H7 anti-tau antibody) of the same molecule?
Its value is “clear reduction”.

What about the BACE protein level [2] of the same molecule?
The BACE protein level was “profound reduction”.

And the Pro-BACE protein level [2]?
Its Pro-BACE protein level is “not significantly affected”.

And the “Presenilin 1 level” value [3]?
Its value is “did not show significant changes”.

What about the “Aβ1-40 in cell culture medium” value [4] of the same molecule?
The value was “without major effects”.

What about the “Aβ1-42 in cell culture medium” value [4] of the same molecule?
The value was “significantly reduced”.

And the TACE level [5]?
The TACE level was “reduction of TACE levels in the majority of ST101 treated animals”.

What about the “accumulation of Aβ-like deposits in brain tissue” value [6] of the same molecule?
The value was “decreased accumulation”.

And the “learning and memory functions” value [6]?
The value was “improvement”.

What about the “memory deficits induced by chemical amnesic agents” value ([7]; methamphetamine, MK-801, scopolamine) of the same molecule?
Its value is “attenuates”.

And the age-impaired memory ([7]; rodent models)?
The age-impaired memory was “significantly improves”.

What about the Aβ1-40 in brain [8] of the same molecule?
The Aβ1-40 in brain was “reduction of Aβ1-40 in animals treated with ST101 that did not reach statistical significance”.

And the sAPP-beta level [9]?
The sAPP-beta level was “concomitant reduction”.

What about the “extracellular ACh concentrations” value ([10]; cerebral cortex) of the same molecule?
The value was “increases”.

What about the “extracellular concentrations of both ACh and dopamine” value ([10]; hippocampus) of the same molecule?
The value was “increases”.

What about the “nicotine-stimulated release of acetylcholine (ACh)” value ([10]; in vivo) of the same molecule?
Its value is “potentiates”.

What about the “safety in toxicity studies” value [11] of the same molecule?
The value was “proven safe”.

What about the “17 kDa fragment” value [12, 17] of the same molecule?
Its value is “lack of detection”.

And the C99 fragment [12, 17]?
The C99 fragment was “much more pronounced; also recorded: reduction”.

What about the C83 fragment ([12]; 14.5-month-old 3xTg-AD mice, 2.5 months, compared with 12-month-old mice) of the same molecule?
Its C83 fragment is “not reduced to the same degree”.

What about the “C83 C-terminal APP fragment” value [12, 18] of the same molecule?
The value was “substantial decrease”.

What about the “C99 C-terminal APP fragment” value [12, 18] of the same molecule?
The value was “substantial decrease”.

What about the “major APP degradation intermediate (~50 kDa)” value [12, 18] of the same molecule?
The value was “disappearance or significant reduction”.

And the “molecular weight of full-length APP species” value [12, 18]?
The value was “slightly lowered molecular weight of some full-length species”.

And the “novel C-terminal APP fragment of about 17 kDa” value [12, 18]?
Its value is “appearance”.

And the “APP CTFs” value ([12]; antibody CT20, 14.5-month-old 3xTg-AD mice, 2.5 months)?
Its value is “significant effect of reduction”.

And the ADAM-10 protein level [13]?
The ADAM-10 protein level was “not significantly affected”.

And the pro-ADAM10 protein level [13]?
Its pro-ADAM10 protein level is “profound reduction”.

What about the “accumulated tau and degradation products” value ([14]; H7 antibody) of the same molecule?
The value was “disappearance of accumulated tau and degradation products”.

What about the “phosphorylated tau degradation product” value ([14]; R-p-tau antibody) of the same molecule?
The value was “appearance of a new phosphorylated tau degradation product”.

And the “safety in toxicity studies” value [15]?
Its value is “proven safe”.

What about the “latency on successive days of the training” value ([16]; 3xTg-AD mice approx. one year old, 5 mg/kg/day in drinking water, vs control) of the same molecule?
Its value is “greater reductions in latency”.

And the “learning and memory performance” value ([16]; 3xTg-AD mouse strain, 5 mg/kg/day)?
The value was “improves learning and memory performance”.

And the “crosses during retention testing” value [16, 19]?
The value was “increases in crosses”.

And the “latency during retention testing” value [16, 19]?
Its value is “reductions in latency”.

From patent US20100267763A1, “Method of Decreasing Pro-ADAM10 Secretase and/or Beta Secretase Levels” (priority 2009, published 2010)
